Tests used:
[1] = compound: CCOc1cc2ncc(C#N)c(Nc3ccc(OCc4ccccn4)c(Cl)c3)c2cc1NC(=O)/C=C/CN(C)C [Neratinib/HKI272]; assay: increase in dead-cell fraction, 72 h; higher = more death;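 note: breast cancer cell lines in 384-well plates, stained with Hoechst plus LIVE/DEAD far red dye and imaged, cells above an LDR intensity threshold counted dead, Hoechst-negative corpses included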
[2] = compound: CCc1cnn2c(NCc3ccc[n+]([O-])c3)cc(N3CCCC[C@H]3CCO)nc12; assay: as above
[3] = compound: CCN1CCN(Cc2ccc(Nc3ncc(F)c(-c4cc(F)c5nc(C)n(C(C)C)c5c4)n3)nc2)CC1; assay: as above
[4] = compound: T1, CN1CC[C@H](c2c(O)cc(O)c3c(=O)cc(-c4ccccc4Cl)oc23)[C@H](O)C1 [Flavopiridol]; assay: as above
[5] = compound: CN(C)C(=O)c1cc2cnc(Nc3ccc(N4CCNCC4)cn3)nc2n1C1CCCC1 [LEE011/Ribociclib]; assay: as above
[6] = compound: CC(=O)c1c(C)c2cnc(Nc3ccc(N4CCN(CCOCCOCCOCCNC(=O)COc5cccc6c5C(=O)N(C5CCC(=O)NC5=O)C6=O)CC4)cn3)nc2n(C2CCCC2)c1=O [BSJ-03-123]; assay: as above
[7] = compound: CC(=O)c1c(C)c2cnc(Nc3ccc(N4CCNCC4)cn3)nc2n(C2CCCC2)c1=O; assay: as above
[8] = compound: T2, CN(C)C/C=C/C(=O)Nc1ccc(C(=O)Nc2cccc(Nc3ncc(Cl)c(-c4c[nH]c5ccccc45)n3)c2)cc1 [THZ1]; assay: as above
[9] = compound: CN(C)C/C=C/C(=O)Nc1ccc(C(=O)N2CCC[C@@H](Nc3ncc(Cl)c(-c4c[nH]c5ccccc45)n3)C2)cc1 [THZ531]; assay: GR value, 72 h; higher = faster growth (1 = untreated, <0 = killing);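 note: breast cancer and non-malignant breast epithelial lines, nine half-log doses, viable cells counted by Hoechst and LIVE/DEAD dye imaging versus time-zero plates and DMSO controls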
[10] = compound: T1, Flavopiridol; assay: as above
[11] = compound: CC(=O)c1c(C)c2cnc(Nc3ccc(N4CCNCC4)cn3)nc2n(C2CCCC2)c1=O; assay: as above
[12] = compound: T2, THZ1; assay: as above

Cell Line: ZR7530
- increase in dead-cell fraction ([1]; 0.0003162 µM): 0.0037
- increase in dead-cell fraction ([1]; 0.001 µM): -0.0057
- increase in dead-cell fraction ([1]; 0.003162 µM): -0.0122
- increase in dead-cell fraction ([1]; 0.01 µM): -0.0066
- increase in dead-cell fraction ([1]; 0.03162 µM): 0.0011
- increase in dead-cell fraction ([1]; 0.1 µM): 0.0186
- increase in dead-cell fraction ([1]; 0.3162 µM): 0.0145
- increase in dead-cell fraction ([1]; 1 µM): 0.025
- increase in dead-cell fraction ([1]; 3.162 µM): 0.0495
- increase in dead-cell fraction ([2]; 0.0001 µM): -0.0019
- increase in dead-cell fraction ([2]; 0.0003162 µM): 0.0016
- increase in dead-cell fraction ([2]; 0.001 µM): -0.02
- increase in dead-cell fraction ([2]; 0.003162 µM): 0.0075
- increase in dead-cell fraction ([2]; 0.01 µM): -0.0026
- increase in dead-cell fraction ([2]; 0.03162 µM): 0.0388
- increase in dead-cell fraction ([2]; 0.1 µM): 0.103
- increase in dead-cell fraction ([2]; 0.3162 µM): 0.138
- increase in dead-cell fraction ([2]; 1 µM): 0.131
- increase in dead-cell fraction ([3]; 0.001 µM): 0.0055
- increase in dead-cell fraction ([3]; 0.003162 µM): -0.0075
- increase in dead-cell fraction ([3]; 0.01 µM): 0.0272
- increase in dead-cell fraction ([3]; 0.03162 µM): 0.0826
- increase in dead-cell fraction ([3]; 0.1 µM): 0.0398
- increase in dead-cell fraction ([3]; 0.3162 µM): 0.0332
- increase in dead-cell fraction ([3]; 1 µM): 0.0706
- increase in dead-cell fraction ([3]; 3.162 µM): 0.0448
- increase in dead-cell fraction ([3]; 10 µM): 0.0361
- increase in dead-cell fraction ([4]; 0.0001 µM): -0.0012
- increase in dead-cell fraction ([4]; 0.0003162 µM): 0.0085
- increase in dead-cell fraction ([4]; 0.001 µM): -0.0127
- increase in dead-cell fraction ([4]; 0.003162 µM): -0.0029
- increase in dead-cell fraction ([4]; 0.01 µM): 0.0104
- increase in dead-cell fraction ([4]; 0.03162 µM): 0.0159
- increase in dead-cell fraction ([4]; 0.1 µM): 0.0202
- increase in dead-cell fraction ([4]; 0.3162 µM): -0.0023
- increase in dead-cell fraction ([4]; 1 µM): 0.191
- increase in dead-cell fraction ([5]; 0.001 µM): 0.0122
- increase in dead-cell fraction ([5]; 0.003162 µM): 0.0504
- increase in dead-cell fraction ([5]; 0.01 µM): 0.0152
- increase in dead-cell fraction ([5]; 0.03162 µM): 0.0426
- increase in dead-cell fraction ([5]; 0.1 µM): 0.0177
- increase in dead-cell fraction ([5]; 0.3162 µM): 0.0519
- increase in dead-cell fraction ([5]; 1 µM): 0.0531
- increase in dead-cell fraction ([5]; 3.162 µM): 0.0382
- increase in dead-cell fraction ([5]; 10 µM): 0.0703
- increase in dead-cell fraction ([6]; 0.001 µM): 0.0025
- increase in dead-cell fraction ([6]; 0.003162 µM): 0.0062
- increase in dead-cell fraction ([6]; 0.01 µM): 0.0113
- increase in dead-cell fraction ([6]; 0.03162 µM): 0.0285
- increase in dead-cell fraction ([6]; 0.1 µM): 0.002
- increase in dead-cell fraction ([6]; 0.3162 µM): 0.0395
- increase in dead-cell fraction ([6]; 1 µM): 0.0336
- increase in dead-cell fraction ([6]; 3.162 µM): 0.0895
- increase in dead-cell fraction ([6]; 10 µM): 0.039
- increase in dead-cell fraction ([7]; 0.0003162 µM): 0.0003
- increase in dead-cell fraction ([7]; 0.001 µM): -0.0021
- increase in dead-cell fraction ([7]; 0.003162 µM): 0.0019
- increase in dead-cell fraction ([7]; 0.01 µM): -0.0031
- increase in dead-cell fraction ([7]; 0.03162 µM): 0.0102
- increase in dead-cell fraction ([7]; 0.1 µM): 0.0763
- increase in dead-cell fraction ([7]; 0.3162 µM): 0.0662
- increase in dead-cell fraction ([7]; 1 µM): 0.0375
- increase in dead-cell fraction ([7]; 3.162 µM): 0.0348
- increase in dead-cell fraction ([8]; 0.0001 µM): 0.0034
- increase in dead-cell fraction ([8]; 0.0003162 µM): 0.0045
- increase in dead-cell fraction ([8]; 0.001 µM): 0
- increase in dead-cell fraction ([8]; 0.003162 µM): -0.0128
- increase in dead-cell fraction ([8]; 0.01 µM): 0.0019
- increase in dead-cell fraction ([8]; 0.03162 µM): 0.0253
- increase in dead-cell fraction ([8]; 0.1 µM): 0.0921
- increase in dead-cell fraction ([8]; 0.3162 µM): 0.097
- increase in dead-cell fraction ([8]; 1 µM): 0.229
- GR value ([9]; 0.0001 µM): 0.959 GR
- GR value ([9]; 0.0003162 µM): 1.15 GR
- GR value ([9]; 0.001 µM): 0.926 GR
- GR value ([9]; 0.003162 µM): 0.99 GR
- GR value ([9]; 0.01 µM): 1.02 GR
- GR value ([9]; 0.03162 µM): 0.98 GR
- GR value ([9]; 0.1 µM): -0.379 GR
- GR value ([9]; 0.3162 µM): -0.732 GR
- GR value ([9]; 1 µM): -0.42 GR
- GR value ([10]; 0.0001 µM): 1.03 GR
- GR value ([10]; 0.0003162 µM): 1.14 GR
- GR value ([10]; 0.001 µM): 1.04 GR
- GR value ([10]; 0.003162 µM): 0.795 GR
- GR value ([10]; 0.01 µM): 0.93 GR
- GR value ([10]; 0.03162 µM): 1.13 GR
- GR value ([10]; 0.1 µM): 0.766 GR
- GR value ([10]; 0.3162 µM): 0.119 GR
- GR value ([10]; 1 µM): -0.662 GR
- GR value ([11]; 0.0003162 µM): 1.08 GR
- GR value ([11]; 0.001 µM): 1.08 GR
- GR value ([11]; 0.003162 µM): 1.06 GR
- GR value ([11]; 0.01 µM): 0.858 GR
- GR value ([11]; 0.03162 µM): 0.665 GR
- GR value ([11]; 0.1 µM): 0.482 GR
- GR value ([11]; 0.3162 µM): 0.321 GR
- GR value ([11]; 1 µM): 0.451 GR
- GR value ([11]; 3.162 µM): 0.253 GR
- GR value ([12]; 0.0001 µM): 0.924 GR
- GR value ([12]; 0.0003162 µM): 1.19 GR
- GR value ([12]; 0.001 µM): 1.07 GR
- GR value ([12]; 0.003162 µM): 0.851 GR
- GR value ([12]; 0.01 µM): 0.985 GR
- GR value ([12]; 0.03162 µM): 0.289 GR
- GR value ([12]; 0.1 µM): -0.492 GR
- GR value ([12]; 0.3162 µM): -0.524 GR
- GR value ([12]; 1 µM): -0.638 GR
